The results in this text go back to US9255107B2 (NANJING SANHOME PHARMACEUTICAL CO., LTD., priority 2012, dated 2016).

Structures can show the parent of a compound that is named as a salt. Where two headings read alike, the source gives them in different places.

Data set [1] deals with K562 leukemia cells. Description: MTT assay, in vitro inhibitory activity on cells. Type of data set: cell-based. The conditions noted are these: Homo sapiens, typically 48 hours, read-out: IC50 K562 Chronic myelogenous leukemia cells. From the text: (§1) In this example, MTT assay was used to detect in vitro inhibitory activity of the compounds prepared according to the above examples on the cells.
(§2) Dimethyl sulfoxide (DMSO) is capable of dissolving formazan in cells, and absorbance value can be measured at a wavelength of 490 nm by an enzyme-linked immunometric meter, which reflects the number of living cells. Within a certain range of the number of cells, the amount of MTT crystals formed is proportional to the number of living cells.
(§3) 2. Culturing in a 37° C., 5% CO2 incubator and keeping the cells adhering to the walls of the wells.
(§4) 4. Carefully removing the supernatant, gently washing with PBS and discarding the supernatant again.
(§5) 6. Terminating culturing and carefully discarding the medium in each well. 7. Adding 150 μl dimethyl sulfoxide into each well, shaking for 10 minutes at low speed in a shaker, to make crystals fully dissolved.
(§6) 8. Measuring the absorbance of each well at 490 nm by an enzyme-linked immunometric meter.

Data set [2] has as its system MDA-MB-231 human breast cancer cells. Nature of the data set: MTT assay, in vitro inhibitory activity on cells. The conditions noted are these: typically 48 hours. It counts as cell-based.
Excerpt: as §1, §2, §3, §4, §5, §6
(In general: Tetrazolium assays rely on reduction of a dye to a coloured formazan, in cell work by metabolically active cells.)

Data set [3] deals with Saos-2 human osteosarcoma cells. Description: MTT assay, in vitro inhibitory activity on cells. Type of data set: cell-based. Particulars: typically 48 hours.
Excerpt: as §1, §2, §3, §4, §5, §6

Data set [4] concerns Ovcar-3 human ovarian cancer cells. Description: MTT assay, in vitro inhibitory activity on cells. Type of data set: cell-based. The conditions noted are these: typically 48 hours.
Excerpt: as §1, §2, §3, §4, §5, §6

The nature of data set [5]: Pharmacokinetic studies in male SD rats. Particulars: rat, plasma; for MRT inf: read-out: MRT(0-∞). Type of data set: in vivo. Here is the method:
The compound prepared in Example 27 of the present invention was illustratively selected for this experiment. The pharmaceutical formulation for oral administration was made by dissolving the compound in physiological saline to prepare 3 mg/ml of suspension. The pharmaceutical formulation for caudal vein injection was made by using a mixed solution of DMSO, polyoxyethylene castor oil and physiological saline in the volume ratio of 1:30:69 to prepare 2.5 mg/ml of solution.
Male SD rats, each group of three, weighing 150 g-250 g, were provided by Shanghai SIPPR-BK Laboratory Animal Co. Ltd., China. The tested rats were acclimatized to the environment for 2-4 days prior to the experiment, and fasted for 8-12 hours before administration. The rats drank water freely 2 hours after administration, and were fed food 4 hours after administration.
1) Taking blank plasma (zero-hour sample) after the SD rats were fasted but allowed drinking water freely for 12 hours;
2) Administering to three rats in Step 1) the compound prepared in Example 27 at 15 mg/kg by gavage (Intragastric administration, IG);
administering to another three rats in Step 1) the compound prepared in Example 27 at 3 mg/kg by caudal vein (Intravenous administration, IV);
3) Collecting sequentially blood from retinal venous plexus of the rats at 10 min, 30 min, 1 h, 2 h, 4 h, 6 h, 8 h, 10 h, 24 h after gavage administration, placing into the heparin-coated EP tubes, taking the upper plasma after centrifuging for 5 min at 8000 rpm/min, and storing at −20° C. until LC-MS/MS analysis;
4) Calculating the pharmacokinetic parameters using WinNonlin software according to the blood concentration—time data obtained from Step 3), shown in Table 4;
5) Collecting sequentially blood from retinal venous plexus of the rats at 5 min, 15 min, 30 min, 1 h, 2 h, 4 h, 8 h, 24 h after caudal vein administration, placing into the heparin-coated EP tubes, taking the upper plasma after centrifuging for 5 min at 8000 rpm/min, and storing at −20° C. until LC-MS/MS analysis;
6) Calculating the pharmacokinetic parameters using WinNonlin software according to the blood concentration—time data obtained from Step 5), shown in Table 4.

For orientation: IC50 means the concentration that inhibits the measured activity by half. As for `Cc1ccc(NC(=O)Nc2ccc(CN3CCN(C)CC3)c(C(F)(F)F)c2)cc1C#Cc1cnc2[nH]ncc2c1` [Example 1, N-[3-((1H-pyrazolo[3,4-b]pyridin-5-yl)ethynyl)-4-methylphenyl]-N′-[4-((4-methylpiperazin-1-yl)methyl)-3-trifluoromethylphenyl]urea], the IC50 in data set [1] was found to be 4130 nM; in data set [2], 2790 nM.
As to `Cc1ccc(NC(=O)Nc2ccc(CN3CCN(C)CC3)c(C(F)(F)F)c2)cc1C#Cc1cnc2[nH]ccc2n1` [Example 2, N-[3-((1H-pyrrolo[2,3-b]pyrazin-5-yl)ethynyl)-4-methylphenyl]-N′-[4-((4-methylpiperazin-1-yl)methyl)-3-trifluoromethylphenyl]urea], the half-inhibitory concentration (IC50) was 2060 nM in data set [1], 110 nM in data set [2], 270 nM in data set [3] and 3.09 µM in data set [4].
For the compound `CNc1nc2cc(C#Cc3cc(NC(=O)Nc4ccc(CN5CCN(C)CC5)c(C(F)(F)F)c4)ccc3C)ccn2n1` [Example 7], the IC50 in data set [1] amounted to 5070 nM.
Same read-out and setting: as for `Cc1ccc(NC(=O)Nc2ccc(CN3CCN(C)CC3)c(C(F)(F)F)c2)cc1C#Cc1ccn2nc(N(C)C)nc2c1` [Example 8], the figure is 420 nM.
With `Cc1ccc(C(=O)Nc2ccc(CN3CCN(C)CC3)c(C(F)(F)F)c2)cc1C#Cc1cn(C)c(-c2ncc[nH]2)n1` [Example 10, 4-methyl-3-((1-methyl-1H,1′H-[2,2′-diimidazol]-4-yl)ethynyl)-N-[4-((4-methylpiperazin-1-yl)methyl)-3-trifluoromethylphenyl]benzamide], the concentration for half-maximal inhibition (IC50) is 1920 nM in data set [1], 1420 nM in data set [2], 870 nM in data set [3] and 3.19 µM in data set [4].
The corresponding values for `Cc1ccc(C(=O)Nc2ccc(CN3CCN(C)CC3)c(C(F)(F)F)c2)cc1C#Cc1cn(C)c(-c2ncc([N+](=O)[O-])[nH]2)n1` [Example 11, 4-methyl-3-((1-methyl-5′-nitro-1H,1′H-[2,2′-diimidazol]-4-yl)ethynyl)-N-[4-((4-methylpiperazin-1-yl)methyl)-3-trifluoromethylphenyl]benzamide] are 3140 nM, 360 nM, 2680 nM and 10.1 µM.
With `Cc1ccc(NC(=O)Nc2ccc(CN3CC[C@@H](N(C)C)C3)c(F)c2)cc1C#Cc1cn(C)c(-c2ncc(C(F)(F)F)[nH]2)n1` [Example 13, N-[4-methyl-3-((1-methyl-5′-trifluoromethyl-1H,1′H-[2,2′-diimidazol]-4-yl)ethynyl)phenyl]-N′—(R)-[4-((3-dimethylaminotetrahydropyrrol-1-yl)methyl)-3-fluorophenyl]urea], the IC50 turned out to be 520 nM in data set [1] and 290 nM in data set [2].
On the same counts, the results for `Cc1ccc(NC(=O)Nc2ccc(CN3CCN(C)CC3)c(C(F)(F)F)c2)cc1C#Cc1cn(C)c(-c2ncc(C(F)(F)F)[nH]2)n1` [Example 14, N-[4-methyl-3-((1-methyl-5′-trifluoromethyl-1H,1′H-[2,2′-diimidazol]-4-yl)ethynyl)phenyl]-N′-[4-((4-methylpiperazin-1-yl)methyl)-3-trifluoromethylphenyl]urea] are 160 nM and 1210 nM.
The corresponding values for `Cc1ccc(NC(=O)c2ccc(CN3CCN(CCO)CC3)c(C(F)(F)F)c2)cc1C#Cc1cn(C)c(-c2ncc(C(F)(F)F)[nH]2)n1` [Example 15] are 370 nM and 560 nM.
As to `Cc1cn(-c2cc(NC(=O)c3ccc(F)c(C#Cc4cnc(-c5nc[nH]n5)n4C)c3)cc(C(F)(F)F)c2)cn1` [Example 16, 3-[1-methyl-2-([1,2,4]-1H-triazol-3-yl)imidazol-5-yl]ethynyl-4-fluoro-N-[3-trifluoromethyl-5-(4-methylimidazol-1-yl)phenyl]benzamide], the IC50 amounted to 1270 nM in data set [2], 1160 nM in data set [3] and 4.72 µM in data set [4].
With `CNC(=O)c1cc(Oc2cc(NC(=O)c3ccc(F)c(C#Cc4cnc(-c5nc[nH]n5)n4C)c3)cc(C(F)(F)F)c2)ccn1` [Example 17, 4-fluoro-3-[1-methyl-2-([1,2,4]-1H-triazol-3-yl)imidazol-5-yl]ethynyl-N-[3-trifluoromethyl-5-(2-N-methylcarbamoylpyridin-4-yl)oxy]phenylbenzamide], the IC50 was 980 nM in data set [2], 640 nM in data set [3] and 3.98 µM in data set [4].
As for `Cc1ccc(C(=O)Nc2ccc(CN3CC[C@@H](N(C)C)C3)c(C(F)(F)F)c2)cc1C#Cc1ccc(-c2ncc(C(F)(F)F)[nH]2)nc1` [Example 20, 4-methyl-3-((2-(5-trifluoromethyl-1H-imidazol-2-yl)pyridin-5-yl)ethynyl)-N—[(R)-4-((3-dimethylaminotetrahydropyrrol-1-yl)methyl)-3-trifluoromethylphenyl]benzamide], the IC50 in data set [1] worked out at 2210 nM; in data set [2], 4720 nM.
For the compound `Cc1ccc(NC(=O)c2ccc(CN3CCN(C)CC3)cc2)cc1C#Cc1ccc(-c2ncc(C#N)[nH]2)nc1` [Example 21], the half-maximal inhibitory concentration (IC50) in data set [1] is 3590 nM; in data set [2] it was 2060 nM.
With `Cc1ccc(C(=O)Nc2ccc(CN3CC[C@H](N(C)C)C3)c(C(F)(F)F)c2)cc1C#Cc1ccc(-c2ncc(F)[nH]2)nc1` [Example 22, 4-methyl-3-((2-(5-fluoro-1H-imidazol-2-yl)pyridin-5-yl)ethynyl)-N-[(S)-4-((3-dimethylaminotetrahydropyrrol-1-yl)methyl)-3-trifluoromethylphenyl]benzamide], the values for the half-inhibitory concentration (IC50) in data set [1] and in data set [2] were 4070 nM and 1150 nM, respectively.
In the case of `Cc1ccc(NC(=O)Nc2ccc(CN3CCN(C)CC3)c(C(F)(F)F)c2)cc1C#Cc1ccc(-c2ncc(C#N)[nH]2)nc1` [Example 23, N-[3-(2-(5-acetonitrile-1H-imidazol-2-yl)pyridin-5-yl)ethynyl-4-methylphenyl]-N′-[3-trifluoromethyl-4-(4-methylpiperazin-1-ylmethyl)phenyl]urea], the 50% inhibitory concentration (IC50) in data set [1] is 3310 nM.
As for `Cc1cn(-c2cc(C(=O)Nc3ccc(F)c(C#Cc4ccc(-c5ncc(C(F)(F)F)[nH]5)nc4)c3)cc(C(F)(F)F)c2)cn1` [Example 24, 3-trifluoromethyl-5-(4-methylimidazol-1-yl)-N-[3-(2-(5-trifluoromethyl-1H-imidazol-2-yl)pyridin-5-yl)ethynyl-4-fluorophenyl]-benzamide], the IC50 in data set [1] stood at 940 nM; in data set [2], 1170 nM.
The corresponding values for `Cc1ccc(C(=O)Nc2ccc(CN3CCN(C)CC3)c(C(F)(F)F)c2)cc1C#Cc1ccc(-c2nc[nH]n2)nc1` [Example 25, 4-methyl-3-((2-(1,2,4-triazol-3-yl)pyridin-5-yl)ethynyl)-N-[4-((4-methylpiperazin-1-yl)methyl)-3-trifluoromethylphenyl]benzamide] are 3580 nM and 2860 nM.
Turning to `CNC(=O)c1cc(Oc2ccc(NC(=O)c3ccc(C)c(C#Cc4ccc(-c5nc[nH]n5)nc4)c3)cc2)ccn1` [Example 26, 4-methyl-3-[2-([1,2,4]-1H-triazol-3-yl)pyridin-5-yl]ethynyl-N-[(2-N-methylcarbamoylpyridin-4-yl)oxy]phenylbenzamide], the IC50 in data set [1] worked out at 5910 nM.
The AUC(0-inf) is total exposure, with the tail of the curve extrapolated. By AUC(0-t) is commonly meant the area under the concentration-time curve up to a stated or last time point. Low readings indicate low exposure, high ones high exposure. As usually defined, the Cmax is the highest concentration seen after dosing. Usually half-life stands for the time needed for the level to fall by half in the phase considered. The bioavailability is dose-corrected exposure relative to a reference, in per cent. What is called Tmax is the time from dosing to the highest level. In data set [5] (iv, I.V. 3 mg/kg), `Cc1ccc(C(=O)Nc2ccc(CN3CCN(C)CC3)c(C(F)(F)F)c2)cc1C#Cc1cnc2[nH]ccc2n1` [Example 27, hydrochloride] had an AUC(0-inf) of 3380 ng·h/mL, an exposure AUC(0-t) of 3300 ng·h/mL, a Cmax of 1270 ng/mL and a half-life of 296 min. Further, in data set [5] (iv, I.V. 3 mg/kg), the MRT inf came to 4.92 h. For the same compound, the bioavailability in data set [5] (oral, I.G. 15 mg/kg vs I.V. 3 mg/kg, read-out: F (oral bioavailability)) was determined as 32.6%. Further, in data set [5] (po, I.G. 15 mg/kg), the AUC(0-inf) stood at 5220 ng·h/mL, the area under the curve AUC(0-t) amounted to 5370 ng·h/mL, the peak level (Cmax) was 376 ng/mL and the Tmax is 7.33 h. In addition, in data set [5] (po, I.G. 15 mg/kg), the half-life was 246 min and the MRT inf worked out at 7.71 h.
